The record followed here is patent publication US20240180886A1, “INHIBITORS OF PROTEIN TYROSINE PHOSPHATASE, COMPOSITIONS, AND METHODS OF USE” (BRISTOL-MYERS SQUIBB COMPANY, priority 2022, published 2024).

The target in experiment [1] is T1, PTPN2 (Homo sapiens (Human), UniProt P17706). The experiment can be described thus: Phosphatase activity assay using DiFMUP as substrate. It is filed as biochemical. Conditions: PTPN2 0.15 nM, 10 mM DTT. Here is the method: The PTPN2 biochemical assay was performed as follows, a 5× stock solution of human PTPN2 (SRP5075, MilliporeSigma, Burlington, MA) and a 1.25× stock solution of DiFMUP (D6567, ThermoFisher Scientific, Waltham, MA), were prepared in 1× reaction buffer consisting of 50 mM HEPES, pH 7.4, 1 mM EDTA, 150 mM NaCl, 0.2 mg/mL BSA, 100 U/mL catalase and 10 mM DTT. […] of the DiFMUP substrate solution, for a final concentration of […] DiFMUP substrate, was added to a Corning 3574 384-well, white, non-binding surface microtiter plate containing […] of serially diluted test compounds prepared in DMSO. The reactions were started with the addition of […] of the enzyme solution, for a final PTPN2 concentration of 0.15 nM, and monitored every 105 seconds for 60 minutes at λEX 360/λEM 460 in a BioTek Synergy HTX plate reader (Agilent Technologies, Santa Clara, CA) at room temperature. The initial linear portions of the progress curves were fit according to a linear equation to yield the slopes and converted to % inhibition based on a value of 100% activity for the no inhibitor treated control. IC50 values of each compound were obtained by fitting the % inhibition-compound concentration curves using Dotmatics software (Dotmatics, Bishops Stortford, Hertfordshire, England),
Target sequence in this assay (P17706 other isoform, or with tags, fused parts or gaps isoform P17706-2): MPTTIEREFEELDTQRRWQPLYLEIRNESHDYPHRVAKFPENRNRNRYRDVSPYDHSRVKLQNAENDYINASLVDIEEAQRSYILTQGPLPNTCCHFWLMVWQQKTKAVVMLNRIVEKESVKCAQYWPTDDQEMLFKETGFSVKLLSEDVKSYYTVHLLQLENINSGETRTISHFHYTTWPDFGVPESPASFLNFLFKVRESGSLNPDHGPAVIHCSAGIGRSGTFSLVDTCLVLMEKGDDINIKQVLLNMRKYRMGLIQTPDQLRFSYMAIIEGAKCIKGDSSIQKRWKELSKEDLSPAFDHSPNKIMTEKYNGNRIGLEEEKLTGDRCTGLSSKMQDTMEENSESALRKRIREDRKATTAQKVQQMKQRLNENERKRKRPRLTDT

Experiment [2] has as its system phosphorylated STAT1 in B16-F10 cells. The experiment can be described thus: Phospho-STAT1 (Tyr701) HTRF assay in B16-F10 cells with IFN-gamma. It is filed as cell-based. As to conditions: mouse IFN-gamma 100 ng/mL, 1 hour, read-out: pSTAT1 HTRF B16F10 EC50. On the procedure:
B16-F10 cells (ATCC, Manassas, VA, #CRL-6475) were cultured in DMEM growth medium (ThermoFisher Scientific, Waltham, MA, #11995-040) supplemented with 10% heat-inactivated FBS (ThermoFisher Scientific, #16140-071) and 1% pen/strep (ThermoFisher Scientific, #15140-122). The cells were seeded into a white opaque 384-well tissue culture treated microplate (PerkinElmer, Waltham, MA, #6007688) at a density of 10,000 cells/well in 20 uL total volume and incubated overnight at 37 C and 5% CO2. 30 nL of compounds dissolved in DMSO were then transferred from a source plate into target wells with the Echo650 acoustic liquid handler (Beckman Coulter, Indianapolis, IN). Negative control wells received 30 nL of DMSO only (0.15% final concentration). Plates were returned to the incubator for 1 hour and then cells were treated with either 5 uL of growth medium or 5 uL of growth medium containing 500 ng/mL of recombinant mouse IFN-gamma protein (R&D Systems, Minneapolis, MN, #485-MI/CF, 100 ng/mL final concentration) using the Assist automated pipetting platform (INTEGRA Biosciences, Hudson, NH). Plates were incubated at 37 C for 1 hour and assayed for phosphorylated STAT1 protein levels with the phospho-STAT1 (Tyr701) HTRF kit (Cisbio, Bedford, MA, #63ADK026PEH) according to the manufacturer's instructions.
(In general: TR-FRET usually uses a lanthanide donor and a delayed reading to cut background.)

Experiment [3] deals with T1, PTPN2. The experiment can be described thus: PhosphoSens assay (PTPN2 BCHEM). As to conditions: substrate AQT0264 20 μM, PTPN2 150 pM. Format: biochemical. On the procedure:
A PhosphoSens® kinase assay was performed as described by the vendor (AssayQuant Technologies, Marlborough, MA). Briefly, 1000× solutions of compounds were prepared in DMSO via serial dilution of the 10 mM DMSO stocks using 3-fold intervals in a 384-well reagent plate. 50 nL of the compound dilution series was then added to the corresponding wells of a 384-well assay plate. […] Finally, […] of 5× PTPN2 enzyme stock was added to each well of the assay plate for a final enzyme concentration of 150 pM. Reaction progress curves were collected by sampling fluorescence intensity at the excitation wavelength 360 nm (λex360) and emission wavelength 480 nm (λem480) every 71 seconds for one hour using a Synergy H4 plate reader (BioTek Instruments/Agilent Technologies, Winooski, VT) at room temperature.
Target sequence in this assay (P17706 whole entry): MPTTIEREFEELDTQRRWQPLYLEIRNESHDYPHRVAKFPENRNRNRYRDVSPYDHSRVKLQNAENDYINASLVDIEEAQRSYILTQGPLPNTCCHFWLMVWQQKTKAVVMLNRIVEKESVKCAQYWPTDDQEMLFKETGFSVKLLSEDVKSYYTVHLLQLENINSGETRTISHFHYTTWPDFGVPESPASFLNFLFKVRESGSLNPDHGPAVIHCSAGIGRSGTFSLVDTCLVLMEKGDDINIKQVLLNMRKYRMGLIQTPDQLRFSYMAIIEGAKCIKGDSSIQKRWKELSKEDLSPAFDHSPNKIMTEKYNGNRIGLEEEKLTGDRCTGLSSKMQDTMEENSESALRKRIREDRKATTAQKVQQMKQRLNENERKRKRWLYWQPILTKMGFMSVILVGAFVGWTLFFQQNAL

A further experiment has as its system B16-F10 cells. The experiment can be described thus: Cell proliferation assay (CellTiter-Glo) in B16-F10 cells with IFN-gamma. Format: cell-based. As to conditions: 120 h, mouse IFN-gamma 10 ng/mL, read-out: PTPN2 Prolif 5d B16F10 EC50. In general terms: ATP-based viability assays read luminescence as a measure of living cells.

The IC50 is the midpoint of a concentration-inhibition curve. One may read the EC50 as the midpoint of the concentration-response curve.

On to `O=C1CN(c2c(O)cc(CNc3cc(F)ccn3)cc2F)S(=O)(=O)N1` [EXAMPLE 16, 5-[2-fluoro-4-[[(4-fluoro-2-pyridyl)amino]methyl]-6-hydroxy-phenyl]-1,1-dioxo-1,2,5-thiadiazolidin-3-one], for which the half-inhibitory concentration (IC50) came to 200 nM at PTPN2 [1] and 20 nM at PTPN2 [3]. The EC50 in experiment [2] came out at 1240 nM; in the experiment on B16-F10 cells, 1030 nM.
For `O=C1CN(c2c(O)cc(CNc3cc(C4CC4)ccn3)cc2F)S(=O)(=O)N1` [EXAMPLE 1, 5-[4-[[(4-cyclopropyl-2-pyridyl)amino]methyl]-2-fluoro-6-hydroxy-phenyl]-1,1-dioxo-1,2,5-thiadiazolidin-3-one], in that order: 1 nM, 6 nM, 260 nM and 580 nM.
For `COc1cnc(NCc2cc(O)c(N3CC(=O)NS3(=O)=O)c(F)c2)cc1OC` [EXAMPLE 26, 5-[4-[[(4,5-dimethoxy-2-pyridyl)amino]methyl]-2-fluoro-6-hydroxy-phenyl]-1,1-dioxo-1,2,5-thiadiazolidin-3-one], the 50% inhibitory concentration (IC50) at PTPN2 [1] and on PTPN2 [3] was 10 nM in each case. In addition, the EC50 in experiment [2] was found to be 340 nM; in the experiment with B16-F10 cells, 740 nM.
Take `COc1ccc(NCc2cc(O)c(N3CC(=O)NS3(=O)=O)c(F)c2)nc1OC` [EXAMPLE 36, 5-[4-[[(5,6-dimethoxy-2-pyridyl)amino]methyl]-2-fluoro-6-hydroxy-phenyl]-1,1-dioxo-1,2,5-thiadiazolidin-3-one]: the results for the IC50 at PTPN2 [1] and on PTPN2 [3] were 10 nM and 20 nM, respectively. For the same compound, the EC50 came out at 640 nM in experiment [2] and 2180 nM in the experiment with B16-F10 cells.
The matching figures for `COc1cccc(NCc2cc(O)c(N3CC(=O)NS3(=O)=O)c(F)c2)n1` [EXAMPLE 35, 5-[2-fluoro-6-hydroxy-4-[[(6-methoxy-2-pyridyl)amino]methyl]phenyl]-1,1-dioxo-1,2,5-thiadiazolidin-3-one]: 20 nM, 80 nM, 11600 nM and 8660 nM.
Regarding `Cc1cnc(NCc2cc(O)c(N3CC(=O)NS3(=O)=O)c(F)c2)cc1F` [EXAMPLE 33, 5-[2-fluoro-4-[[(4-fluoro-5-methyl-2-pyridyl)amino]methyl]-6-hydroxy-phenyl]-1,1-dioxo-1,2,5-thiadiazolidin-3-one], the results for the IC50 at PTPN2 [1] and at PTPN2 [3] were 40 nM and 20 nM, respectively. Further, the concentration giving a half-maximal response (EC50) was found to be 510 nM in experiment [2] and 970 nM in the experiment with B16-F10 cells.
For `O=C1CN(c2c(O)cc(CNc3cc(OCc4ccccc4)ccn3)cc2F)S(=O)(=O)N1` [EXAMPLE 46, 5-[4-[[(4-benzyloxy-2-pyridyl)amino]methyl]-2-fluoro-6-hydroxy-phenyl]-1,1-dioxo-1,2,5-thiadiazolidin-3-one], in that order: 10 nM, 6 nM, 4100 nM and 3510 nM.
The matching figures for `COc1ccnc(NCc2cc(O)c(N3CC(=O)NS3(=O)=O)c(F)c2)c1` [EXAMPLE 12, 5-[2-fluoro-6-hydroxy-4-[[(4-methoxy-2-pyridyl)amino]methyl]phenyl]-1,1-dioxo-1,2,5-thiadiazolidin-3-one]: 10 nM, 10 nM, 90 nM and 140 nM.
For `O=C1CN(c2c(O)cc(CNc3ccccn3)cc2F)S(=O)(=O)N1` [EXAMPLE 37, 5-[2-fluoro-6-hydroxy-4-[(2-pyridylamino)methyl]phenyl]-1,1-dioxo-1,2,5-thiadiazolidin-3-one], in that order: 70 nM, 30 nM, 450 nM and 1260 nM.
As to `O=C1CN(c2c(O)cc(CNc3ccc(C4CC4)cn3)cc2F)S(=O)(=O)N1` [EXAMPLE 10, 5-[4-[[(5-cyclopropyl-2-pyridyl)amino]methyl]-2-fluoro-6-hydroxy-phenyl]-1,1-dioxo-1,2,5-thiadiazolidin-3-one], the half-maximal inhibitory concentration (IC50) at PTPN2 [1] was 40 nM; at PTPN2 [3], 3 nM. Further, the EC50 is 570 nM in experiment [2] and 610 nM with B16-F10 cells.
The matching figures for `O=C1CN(c2c(O)cc(CN(c3ccc(C(F)(F)F)cn3)C3CC3)cc2F)S(=O)(=O)N1` [EXAMPLE 50, 5-(4-((cyclopropyl(5-(trifluoromethyl)pyridin-2-yl)amino)methyl)-2-fluoro-6-hydroxyphenyl)-1,2,5-thiadiazolidin-3-one 1,1-dioxide]: 3240 nM, 816 nM, above 15000 nM and above 15000 nM.
The matching figures for `O=C1CN(c2c(O)cc(CNc3ncccc3C(F)(F)F)cc2F)S(=O)(=O)N1` [EXAMPLE 3, 5-[2-fluoro-6-hydroxy-4-[[[3-(trifluoromethyl)-2-pyridyl]amino]methyl]phenyl]-1,1-dioxo-1,2,5-thiadiazolidin-3-one]: 1000 nM, 570 nM, above 15000 nM and above 15000 nM.
For `CCc1cccnc1NCc1cc(O)c(N2CC(=O)NS2(=O)=O)c(F)c1` [EXAMPLE 23, 5-[4-[[(3-ethyl-2-pyridyl)amino]methyl]-2-fluoro-6-hydroxy-phenyl]-1,1-dioxo-1,2,5-thiadiazolidin-3-one], in that order: 510 nM, 30 nM, 1510 nM and 14100 nM.
For `Cc1ccnc(NCc2cc(O)c(N3CC(=O)NS3(=O)=O)c(F)c2)c1C` [EXAMPLE 25, 5-[4-[[(3,4-dimethyl-2-pyridyl)amino]methyl]-2-fluoro-6-hydroxy-phenyl]-1,1-dioxo-1,2,5-thiadiazolidin-3-one], the IC50 worked out at 130 nM at PTPN2 [1] and 90 nM at PTPN2 [3]. The values for the concentration for a half-maximal effect (EC50) (in experiment [2]; in the experiment with B16-F10 cells) were 10200 nM and 7670 nM, respectively.
The matching figures for `COc1cc(NCc2cc(O)c(N3CC(=O)NS3(=O)=O)c(F)c2)ncc1C` [EXAMPLE 9, 5-[2-fluoro-6-hydroxy-4-[[(4-methoxy-5-methyl-2-pyridyl)amino]methyl]phenyl]-1,1-dioxo-1,2,5-thiadiazolidin-3-one]: 4 nM, 4 nM, 70 nM and 120 nM.
Turning to `Cc1cnc(NCc2cc(O)c(N3CC(=O)NS3(=O)=O)c(F)c2)cc1C` [EXAMPLE 28, 5-[4-[[(4,5-dimethyl-2-pyridyl)amino]methyl]-2-fluoro-6-hydroxy-phenyl]-1,1-dioxo-1,2,5-thiadiazolidin-3-one], the results for the half-inhibitory concentration (IC50) at PTPN2 [1] and on PTPN2 [3] were 2 nM and 1 nM, respectively. For the same compound, the EC50 came to 130 nM in experiment [2] and 280 nM in the experiment with B16-F10 cells.
